From patent US9487489B2, “Halogen-substituted pyrazole derivatives as pest-control agents” (BAYER CROPSCIENCE AKTIENGESELLSCHAFT, priority 2013, dated 2016)
“And” between values parts separate entries of the source, which are not always exact repeats. Equal entries are not always repeated.

Columns and labels:
[1] = logP determination by HPLC on a reversed-phase column (C18), EEC Directive 79/831 Annex V.A8; assay type: physicochemical; conditions: HPLC on reversed-phase column (C18), acetonitrile/water with formic acid, EEC Directive 79/831 Annex V.A8
How it was run: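 Retention on a C18 reversed-phase column (Zorbax Eclipse Plus, 1.8 micron) was used, eluting with acetonitrile/water, each containing formic acid. The gradient ran from 10% to 95% acetonitrile over 4.25 min, then held 1.25 min, at 55° C and 2.0 ml/min, with MS detection.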

[2] = test system: greenhouse red spider mite (Tetranychus urticae); experiment: Tetranychus urticae spray test, OP-resistant (TETRUR); assay type: in vivo; conditions: bean leaf discs, after 6 days
How it was run: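 Bean leaf discs carrying all stages of OP-resistant Tetranychus urticae were sprayed with compound formulated in acetone/dimethylformamide and diluted in water with 1000 ppm alkylaryl polyglycol ether emulsifier. Mortality (% efficacy, 100% = all mites killed) scored after 6 days.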

[3] = test system: caterpillars of the armyworm (Spodoptera frugiperda); experiment: Spodoptera frugiperda spray test (SPODFR); assay type: in vivo; conditions: maize leaf discs, after 7 days
How it was run: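 Maize leaf discs sprayed with compound in acetone/DMF with alkylaryl polyglycol ether emulsifier (1000 ppm) in water, dried, then infested with armyworm caterpillars. Mortality (%) scored after 7 days; 100% = all caterpillars killed, 0% = none killed.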

[4] = test system: adult houseflies (Musca domestica); experiment: Musca domestica test (MUSCDO); assay type: in vivo; conditions: application rate 100 ppm; after 2 days
How it was run: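 Compound dissolved in DMSO and diluted with water to the test concentration, applied with sugar solution on a sponge; 10 adult houseflies per vessel. Mortality scored after 2 days as % kill (100% all dead, 0% none).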

[5] = test system: bont tick nymphs (Amblyomma hebraeum); conditions: after 48 h
[6] = test system: larvae of the mustard beetle (Phaedon cochleariae); experiment: Phaedon cochleariae spray test (PHAECO); assay type: in vivo; conditions: Chinese cabbage leaf discs, after 7 days
How it was run: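 Compound dissolved in acetone/dimethylformamide with alkylaryl polyglycol ether emulsifier, made up in water containing 1000 ppm emulsifier, then diluted to test concentrations and sprayed against mustard beetle larvae. Efficacy (% larvae killed) scored after 7 days.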

[7] = test system: engorged adult female cattle ticks (Boophilus microplus); experiment: Boophilus microplus injection test (BOOPMI Inj); assay type: in vivo; conditions: application rate 20 μg/animal; injection into abdomen; assessed after 7 days
How it was run: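 DMSO solution of compound (1 μl) injected into the abdomen of 5 engorged adult female ticks, which are then held in a climate-controlled room. After 7 days, efficacy is scored from laying of fertile eggs, with unclear eggs kept until larval hatch (~42 days); 100% means no fertile eggs, 0% all fertile.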

[8] = test system: adult cat fleas (Ctenocephalides felis); experiment: Ctenocephalides felis oral test (CTECFE); assay type: in vivo; conditions: application rate 100 ppm in citrated cattle blood; after 2 days
How it was run: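 About 20 unfed adult cat fleas fed through parafilm membrane on citrated cattle blood containing compound (DMSO stock diluted in blood to test concentration). Kill % scored after 2 days (100% = all fleas dead).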

[9] = test system: L1 larvae of the Australian sheep blowfly (Lucilia cuprina); experiment: Lucilia cuprina test (LUCICU); assay type: in vivo; conditions: application rate 100 ppm; after 2 days
How it was run: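 About 20 L1 larvae placed in a vessel with minced horsemeat plus compound (DMSO concentrate diluted with water to the desired concentration). Kill in % scored after 2 days, 100% meaning all larvae dead.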

[10] = test system: adult cat fleas (Ctenocephalides felis); experiment: Ctenocephalides felis in vitro contact test with adult cat fleas (T1); conditions: after 48 h
How it was run: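 Test compound was dissolved in acetone p.a. (9 mg per 1 ml) and diluted as needed. 250 μl was spread evenly over the inner walls and floor of a 25 ml test tube by rotating on an orbital shaker for 2 h at 30 rpm. Once the solvent evaporated, 5-10 adult Ctenocephalides felis were added. Tubes were capped with a perforated plastic lid and kept horizontal at room temperature and ambient humidity.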

[11] = test system: green peach aphid (Myzus persicae); experiment: Myzus persicae spray test (MYZUPE); assay type: in vivo; conditions: Chinese cabbage leaf discs, after 6 days
How it was run: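 Chinese cabbage leaf discs infested with all aphid stages sprayed with compound in acetone/DMF with alkylaryl polyglycol ether emulsifier in water. Efficacy (% aphids killed; 100% all dead, 0% none) scored after 6 days.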

[12] = test system: cattle ticks (Boophilus microplus) Parkhurst strain, SP-resistant; experiment: Boophilus microplus dip test (BOOPMI Dip); assay type: in vivo; conditions: application rate 100 ppm, assessed after 7 days
Method: B. Boophilus microplus-dip Test (BOOPMI Dip)
Test animals: cattle ticks (Boophilus microplus) Parkhurst strain, SP-resistant
Solvent: dimethyl sulphoxide
10 mg of active compound are dissolved in 0.5 ml of dimethyl sulphoxide. For the purpose of preparing a suitable formulation, the active compound solution is diluted with water to the concentration desired in each case.
This active compound preparation is pipetted into tubes. 8-10 adult engorged female cattle ticks (Boophilus microplus) are transferred into a further tube with holes. The tube is immersed into the active compound formulation, and all ticks are completely wetted. After the liquid has run out, the ticks are transferred on filter discs into plastic dishes and stored in a climate-controlled room.
The activity is assessed after 7 days by laying of fertile eggs. Eggs whose fertility is not visible from the outside are stored in a climate-controlled cabinet until the larvae hatch after about 42 days. An efficacy of 100% means that none of the ticks has laid any fertile eggs; 0% means that all eggs are fertile.

[13] = test system: adult dog ticks (Rhipicephalus sanguineus); experiment: Rhipicephalus sanguineus in vitro contact test with adult brown dog ticks (T2); conditions: after 48 h
How it was run: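 Acetone solutions coated onto test tube walls and floor, giving 5 μg/cm^2 at 900 ppm. Five to ten adult ticks held per tube in the dark at room temperature for 48 h, then heated at 45-50° C for up to 5 min; efficacy is the percentage of dead or moribund ticks unable to climb away.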

Row | SMILES | logP [1] | efficacy in % ([2]; application rate 100 g/ha) [%] | efficacy in % ([3]; application rate 100 g/ha) [%] | efficacy (kill in %) [4] [%] | efficacy (dead or moribund ticks) [5] | efficacy in % ([6]; application rate 100 g/ha) [%] | efficacy (laying of fertile eggs) [7] [%] | efficacy (kill in %) [8] [%] | efficacy (kill in %) [9] [%] | efficacy (dead or moribund fleas) ([10]; application rate 1 μg/cm^2) [%] | efficacy (dead or moribund fleas) ([10]; application rate 5 μg/cm^2) [%] | efficacy in % ([2]; application rate 500 g/ha) [%] | efficacy in % ([3]; application rate 500 g/ha) [%] | efficacy in % ([6]; application rate 500 g/ha) [%] | efficacy in % ([11]; application rate 500 g/ha) [%] | efficacy (laying of fertile eggs) [12] [%] | efficacy (dead or moribund ticks) ([13]; application rate 1 μg/cm^2) [%] | efficacy (dead or moribund ticks) ([13]; application rate 5 μg/cm^2) [%] | efficacy in % ([11]; application rate 100 g/ha) [%]
1 | Cn1nc(C(F)(F)C(F)(F)F)c(C(F)(F)F)c1-n1cc(-c2ccc(Cl)c(C(=O)NCc3ccccc3)c2)cn1 [Ic-3] | 4.39 | 90 | 100 | 100 | 100% and 80% | 100 | 100 | 100 | 100 |  |  |  |  |  |  |  |  |  | 
2 | Cn1cc(NC(=O)c2cc(-c3cnn(-c4c(C(F)(F)F)c(C(F)(F)C(F)(F)F)nn4C)c3)ccc2Cl)cn1 [Ic-166] |  |  |  | 100 |  |  | 100 | 100 | 100 | 100 | 100 | 100 | 100 | 100 | 90 | 100 | 100 | 100 | 
3 | Cn1nc(C(F)(F)C(F)(F)F)c(C(F)(F)F)c1-n1cc(-c2cccc(C(=O)NC3(C#N)CC3)c2)cn1 [Ic-19] | 3.61 | 100 | 100 | 100 | 100% | 100 | 100 | 100 | 100 | 100 | 100 |  |  |  |  |  | 100 | 80 | 
4 | Cn1nc(C(F)(F)C(F)(F)F)c(C(F)(F)F)c1-n1cc(-c2ccc(Cl)c(C(=O)NCC#N)c2)cn1 [Ic-147] |  |  |  | 100 |  |  | 100 | 100 | 100 | 100 | 100 | 100 | 100 | 100 | 100 | 100 | 80 |  | 90
5 | Cn1nc(C(F)(F)C(F)(F)F)c(C(F)(F)F)c1-n1cc(-c2ccc(Cl)c(C(=O)NCC3CC3)c2)cn1 [Ic-153] |  |  |  | 100 |  |  | 100 | 100 | 100 | 100 | 100 | 100 | 100 | 100 | 90 | 100 | 80 | 80 | 
6 | Cn1nc(C(F)(F)C(F)(F)F)c(C(F)(F)F)c1-n1cc(-c2ccc(Cl)c(C(=O)NCCF)c2)cn1 [Ic-77] | 3.67 | 100 | 100 | 100 |  |  | 100 | 100 | 100 | 100 | 100 |  |  |  |  | 100 | 100 | 100 | 100
7 | Cn1nc(C(F)(F)C(F)(F)F)c(C(F)(F)F)c1-n1cc(-c2ccc(Cl)c(C(=O)N[C@@H]3CCOC3)c2)cn1 [Ic-164] |  |  |  | 90 |  |  | 100 | 100 | 100 | 100 | 100 | 100 | 100 | 100 | 90 | 100 | 100 | 100 | 
8 | Cn1nc(C(F)(F)C(F)(F)F)c(C(F)(F)F)c1-n1cc(-c2ccc(Cl)c(C(=O)NC3(C(F)(F)F)CC3)c2)cn1 [Ic-32] | 4.29 | 100 | 100 | 100 | 100% | 100 | 100 | 100 | 100 |  | 80 |  |  |  |  |  | 80 |  | 
